Results as given in PMC6272497, “Biological Activities and Cytotoxicity of Diterpenes from Copaifera spp. Oleoresins” (Molecules, 2015).
Several values for one entry are separate records, joined by “and”; a condition that tells them apart may be missing. Equal values may be shown once. Entries after “also recorded” stand apart in the source; their conditions may differ.

Experiments:
[1] = tested on: TNF-α production; design: method as in PMID 11278990; conditions: cited from earlier work
[2] = tested on: tyrosinase; test: Tyrosinase inhibition test; assay type: biochemical
Description: The tyrosinase inhibition test was performed at concentrations of 31.25 to 500 µM.
(§1) Figure 1 Tyrosinase and lipoxygenase activities of the isolated diterpenes from Copaifera sp. […] 1. 3-hydroxy-copalic acid, 2. kaurenoic acid, 3. 3-acetoxy-copalic acid, 4. kolavic acid15-methyl ester, 5. copalic acid, and 6. hardwickiic acid. Each value is the mean ± S.E. of three independent experiments. Statistical analysis was performed using Holm-Sidak multiple comparisons. * p < 0.05 compared with the negative control.

[3] = tested on: LOX; design: method as in doi:10.1007/s00044-013-0559-7; conditions: read-out: LOX inhibition IC50; cited from earlier work
[4] = tested on: MCF7 (breast cancer); test: Alamar Blue assay, tumoral cells MCF7; assay type: cell-based; conditions: 72 h, 20 µmol/L
Description: (§2) We also investigated possible cytotoxic effects on tumor cell lines (Table 1). To characterize this activity, the compounds were tested in different tumor cell lines, among which were AGP-01 (gastric), HCT116 (colorectal), MCF07 (breast cancer), NIHOVCAR (ovary), SKAMELL-4 (melanoma), and SF-295 (human glioblastoma), each at a concentration of 20 µM.
(§3) Cytotoxicity assay. The cytotoxicity of diterpene compounds to the murine macrophage cell line J774 was determined by the Alamar Blue method as described by Nakayama et al.. Briefly, adherent cells (5 × 10^3 cells/well) were grown in 96-well tissue culture plates and exposed to substances (2.5 to 10 µg/mL) for 24, 48 and 72 h. After incubation, the Alamar Blue solution (10 μL of 0.4% Alamar Blue (resazurin) in PBS) was added and the cells were incubated for 3 h at 37 °C. Fluorescence was measured (excitation at 545 nm and emission at 595 nm) and expressed as a percentage of the cells in the control after background fluorescence was subtracted. As a positive control of cell death, doxorubicin (5 µg/mL) was used. The assays were performed in triplicate. For the assays with tumoral cells, an Alamar Blue assay was performed using the following cell lines: AGP01—gastric; HCT116—colorectal; MCF07—breast cancer; NIHOVCAR—ovary; SKAMELL4—melanoma; SF295—human glioblastoma, which were seeded in 96-well plates (0.5 × 10^4 cells per well) and incubated in a CO2 atmosphere at 5% and 37 °C. After 24 h, diterpenes at 20 µM were added to each well and incubated for 72 h. Doxorubicin (10 μM) was used as a positive control and DMSO (0.1%) as a negative control. Before the end of the incubation, 10 µL of Alamar Blue (0.02%) was added to each well. The fluorescent signal was monitored using a multiplate reader using a 530–560 nm excitation wavelength and 590 nm emission wavelength. The fluorescent signal generated from the assay was proportional to the number of live cells in the sample, according to the manufacturer.

[5] = tested on: AGP01 (gastric); test: Alamar Blue assay, tumoral cells AGP01; assay type: cell-based; conditions: 72 h, 20 µmol/L
Description: as §2, §3

[6] = tested on: NIHOVCAR (ovary); test: Alamar Blue assay, tumoral cells NIHOVCAR; assay type: cell-based; conditions: 72 h, 20 µmol/L
Description: as §2, §3

[7] = tested on: HCT-116 (colorectal); test: Alamar Blue assay, tumoral cells HCT-116; assay type: cell-based; conditions: 72 h, 20 µmol/L
Description: as §2, §3

[8] = tested on: IL-10 production; test: IL-10 production in LPS-stimulated J774 cells (CBA); assay type: cell-based, murine
Description: (§4) Figure 2 Effect of the isolated diterpenic acids on nitric oxide (NO^•) and cytokine production in lipopolysaccharide-stimulated J774 cells. (A) TNF-α, (B) IL-6 and (C) IL-10 and (D) NO^•. Production of NO^• was assayed in culture supernatants of macrophages stimulated with LPS (1 µg/mL) for 24 h in the presence of the four compounds (25 µg/mL to cytokines and 50 µg/mL to NO^•). The nitrite and cytokines values are the mean ± S.D. from three independent experiments. Indomethacin was used as a standard. Statistical analysis was performed using the Holm-Sidak multiple comparison. * p < 0.05 when compared to control stimulated with LPS. (1) 3-hydroxy-copalic acid, (2) kaurenoic acid, (3) 3-acetoxy-copalic acid, (4) kolavic acid 15-methyl ester, (5) copalic acid and (6) hardwickiic acid.
Macrophage cells (1 × 10^6 cells/mL) were incubated with different concentrations of diterpene compounds (12.5 to 50 μM), and then stimulated with 1 μg/mL of LPS. The culture supernatants were collected after 24 h of LPS stimulation. The levels of cytokines in the culture media were measured by flow cytometry (BD Cytometric Bead Array—CBA—Mouse Inflammation kit) according to the manufacturer’s instructions.

[9] = tested on: SF295 (human glioblastoma); test: Alamar Blue assay, tumoral cells SF295; assay type: cell-based; conditions: 72 h, 20 µmol/L
Description: as §2, §3

[10] = tested on: SKMELL28 (melanoma); test: Alamar Blue assay, tumoral cells SKMELL28; assay type: cell-based; conditions: 72 h, 20 µmol/L
Description: as §2, §3

[11] = tested on: IL-6 production; test: IL-6 production in LPS-stimulated J774 cells (CBA); assay type: cell-based, murine; conditions: for inhibition of IL-6 production (words): LPS-stimulated J774; for inhibition at 25 µM: Mus musculus, J774, 25 µM (abstract)
Description: as §4, with “Production of NO^• was assayed in culture supernatants of macrophages stimulated with LPS (1 µg/mL) for 24 h in the presence of the four compounds (25 µg/mL to cytokines and 50 µg/mL to NO^•).” left out
[…] The culture supernatants were collected after 24 h of LPS stimulation. The levels of cytokines in the culture media were measured by flow cytometry (BD Cytometric Bead Array—CBA—Mouse Inflammation kit) according to the manufacturer’s instructions.

[12] = tested on: nitric oxide production in J774 macrophages stimulated with LPS; test: NO production assay (Griess) in LPS-stimulated J774 cells; assay type: cell-based, murine; conditions: Mus musculus; for IC50: J774, LPS 1 µg/mL, 24 h, read-out: inhibition of NO production IC50
Description: Our study evaluated the effects of diterpene compounds on the production of nitric oxide in the murine macrophage cell line J774 stimulated with LPS (Figure 2D). NO^• levels were measured by the Greiss method. […] Similar results for kaurenoic acid were observed by Choi et al. […] Figure 2 Effect of the isolated diterpenic acids on nitric oxide (NO^•) and cytokine production in lipopolysaccharide-stimulated J774 cells. (A) TNF-α, (B) IL-6 and (C) IL-10 and (D) NO^•. […] The nitrite and cytokines values are the mean ± S.D. from three independent experiments. Indomethacin was used as a standard. Statistical analysis was performed using the Holm-Sidak multiple comparison. * p < 0.05 when compared to control stimulated with LPS. (1) 3-hydroxy-copalic acid, (2) kaurenoic acid, (3) 3-acetoxy-copalic acid, (4) kolavic acid 15-methyl ester, (5) copalic acid and (6) […]. NO^• production by J774 cells was assayed by measuring the accumulation of nitrite in the culture medium using a Griess reaction. Briefly, after incubation of the cells (1 × 10^6 cells/mL) with diterpene compounds in different concentrations from 6.25 to 100 μM, cells were incubated for 24 h with LPS (1 μg/mL), at 37 °C in a 5% CO2 incubator. Nitric oxide was measured as NO2 in culture supernatant by reaction with Griess reagent. Absorbance of the reaction product was determined at 560 nm using a microplate reader (DTX 800, Beckman). Sodium nitrite was used as a standard to calculate nitrite concentrations.

[13] = tested on: erythrocyte; test: Hemolysis test
Description: The assay for the characterization of hemolytic activity aimed to evaluate the potential of diterpenes on lysis of the cell membrane.
Blood was collected in heparinized-tubes from Wistar rats, and washed three times with saline solution (NaCl 0.85% + CaCl2 10 mM) by centrifugation at 700 g for 10 min. The pellet of erythrocyte was re-suspended in saline solution for preparation of erythrocyte suspension −2% (SE). A total of 100 µL of the samples of diluted diterpenes was added to 96-well microplates in different concentrations (6.25 to 800 µM); 100 µL of SE was then added; and the samples were incubated for 60 min at 37 °C under constant agitation. The release of hemoglobin was determined after centrifugation (700 g for 10 min) by photometric analysis of the supernatant at 540 nm. Complete hemolysis was achieved using 0.2% Triton X-100 yielding the 100% control value.

[14] = biological target: Lipoxygenase (LOX) (Glycine max, UniProt P08170); test: Lipoxygenase inhibition; assay type: biochemical
Lipoxygenase (LOX), sequence (P08170 whole entry): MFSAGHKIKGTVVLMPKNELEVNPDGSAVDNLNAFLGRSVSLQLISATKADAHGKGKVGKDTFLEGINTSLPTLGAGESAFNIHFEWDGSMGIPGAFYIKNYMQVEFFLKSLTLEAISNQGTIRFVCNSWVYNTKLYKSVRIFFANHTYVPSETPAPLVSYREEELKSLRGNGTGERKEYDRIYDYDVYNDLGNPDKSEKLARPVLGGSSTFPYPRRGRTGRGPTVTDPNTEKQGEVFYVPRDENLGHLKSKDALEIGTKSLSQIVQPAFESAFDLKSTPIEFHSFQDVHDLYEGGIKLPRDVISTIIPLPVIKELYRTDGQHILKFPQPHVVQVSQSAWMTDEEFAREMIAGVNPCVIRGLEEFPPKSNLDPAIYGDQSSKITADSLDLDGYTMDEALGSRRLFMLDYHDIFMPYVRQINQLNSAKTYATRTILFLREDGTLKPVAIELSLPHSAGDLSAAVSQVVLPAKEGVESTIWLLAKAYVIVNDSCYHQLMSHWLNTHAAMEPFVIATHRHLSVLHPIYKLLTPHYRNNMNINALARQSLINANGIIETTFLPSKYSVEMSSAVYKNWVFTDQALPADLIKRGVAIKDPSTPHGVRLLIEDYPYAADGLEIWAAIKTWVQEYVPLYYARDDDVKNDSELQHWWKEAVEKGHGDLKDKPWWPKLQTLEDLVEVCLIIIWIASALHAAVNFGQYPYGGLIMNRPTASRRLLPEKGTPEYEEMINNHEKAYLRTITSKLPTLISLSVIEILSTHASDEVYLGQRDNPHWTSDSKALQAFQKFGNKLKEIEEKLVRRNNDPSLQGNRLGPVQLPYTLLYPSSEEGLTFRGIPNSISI
Description: as §1

[15] = LPS-stimulated J774, 12.5 to 50 µM

Row | Compound | Viability inhibition (%) MCF7 [4] | Viability inhibition (%) NIHOVCAR [6] | Viability inhibition (%) HCT-116 [7] | IL-10 production (words) [8, 15] | Viability inhibition (%) SF295 [9] | Viability inhibition (%) SKMELL28 [10] | IC50 [12] | also measured
1 | linearol acid |  |  |  |  |  |  |  | inhibition of TNF-α production [1]: showed inhibitory activity on the production of TNF-α
2 | O=c1cc(CO)occ1O [Kojic acid, reference compound] |  |  |  |  |  |  |  | tyrosinase inhibition (activity of standard) ([2]; 700 µM): 73.5%
3 | COc1c(C(C)C)cc2c(c1OC)[C@@]13CCC(=O)C(C)(C)[C@@H]1[C@H](OC3=O)C2=O [taxusabietane C] |  |  |  |  |  |  |  | IC50 [3]: 69 ± 0.31 µM
4 | C=C1CCC2C(C)(C)[C@H](OC(C)=O)CC[C@@]2(C)[C@@H]1CCC(C)=CC(=O)O (stereo in doubt) [3-acetoxy-copalic acid, 3-Acetoxy-copalic acid] | ≤0.01% | 2.0 ± 3.5% | ≤0.01% | increased IL-10 production; also recorded: induced IL-10 production | 17.7 ± 0.9% | ≤0.01% |  | Viability inhibition (%) AGP01 [5]: 13.1 ± 5.3%; IL-10 production (words) ([8]; 12.5 µM and 25 µM): induced the production of IL-10; IL-10 production (words) ([8]; 50 µM): this induction decreased; Viability inhibition (%) SF295 ([9]; listed as 3-AcO-copalic): around 20%; inhibition of IL-6 production (words) [11]: inhibited the production of IL-6; inhibition at 25 µM [11]: 23.8%
5 | foliol |  |  |  |  |  |  |  | inhibition of TNF-α production [1]: showed inhibitory activity on the production of TNF-α
6 | C=C1CCC2C(C)(C)[C@H](O)CC[C@@]2(C)[C@@H]1CC/C(C)=C\C(=O)O (some centres unmarked) [3-hydroxy-copalic acid, 3-Hydroxy-copalic acid] | ≤0.01% | ≤0.01% | 4.7 ± 5.6% | promoted the induction of IL-10 independent of the dose tested | 20.5 ± 5.0% | ≤0.01% |  | Viability inhibition (%) AGP01 [5]: 8.5 ± 13.1%; tyrosinase inhibition ([2]; 250 µM): 63.9% and 64% ± 1.5%; tyrosinase activity relative to standard kojic acid ([2]; 63.9% at 250 µM vs 73.5% at 700 µM): three times more active than the standard; tyrosinase inhibitory activity ([2]; conclusions): higher inhibitory activity; IC50 ([2]; tested at 31.25 to 500 µM): 256 µM; IL-10 production (words) ([8]; LPS-stimulated J774, 12.5 to 50 µM, listed as 3-hydroxy-copalic): induced IL-10 production; also recorded: induced production of interleukin-10; Viability inhibition (%) SF295 ([9]; listed as 3-HO-copalic): around 20%
7 | C[C@@H]1CC[C@@]2(C)C(C(=O)O)=CCC[C@@H]2[C@@]1(C)CCc1ccoc1 [hardwickiic acid, Hardwickiic acid] | ≤0.01% | ≤0.01% | ≤0.01% | did not induce the production of IL-10 | ≤0.01% | ≤0.01% | 67.4 ± 1.3 µM | 
8 | COc1ccc2c(c1)c(CC(=O)O)c(C)n2C(=O)c1ccc(Cl)cc1 [indomethacin, reference compound] |  |  |  |  |  |  | 32 ± 3.5 µM | 
9 | COc1c(C(C)C)cc2c(c1O)C=C1C=CC(=O)C(C)(C)C1CC2=O (centres unmarked) [taxamairin F] |  |  |  |  |  |  |  | IC50 [3]: 73 ± 0.14 µM
10 | C=C1CC[C@@H]2C(C)(C)CCC[C@@]2(C)[C@@H]1CC/C(C)=C/C(=O)O [copalic acid, Copalic acid] | ≤0.01% | ≤0.01% | ≤0.01% | increased IL-10 production; also recorded: induced IL-10 production; also recorded: induced production of interleukin-10 | ≤0.01% | ≤0.01% | 57.4 ± 0.2 µM | inhibition of IL-6 production (words) [11]: inhibited the production of IL-6; inhibition at 25 µM [11]: 4.2%; hemolytic activity ([13]; 100 µM (abstract)): 38.4%; hemolytic activity ([13]; 100 mM (so in the source)): 38.4%; inhibition at 100 µM ([12]; J774, 100 µM, LPS-activated macrophages): 98.5%
11 | COC(=O)/C=C(/C)CC[C@@]1(C)[C@H](C)CC[C@@]2(C)C(C(=O)O)=CCC[C@H]12 [kolavic acid 15-methyl ester, Kolavic acid-15-metyl ester] | ≤0.01% | ≤0.01% | ≤0.01% | did not induce the production of IL-10 | ≤0.01% | ≤0.01% | 81.6 ± 2.8 µM | Viability inhibition (%) AGP01 [5]: 17.4 ± 6.7%; inhibition of IL-6 production (words) ([11]; listed as kolavic-15-methyl ester): inhibited the production of IL-6; inhibition at 25 µM [11]: 17.3%; lipoxygenase inhibition ([14]; 200 µM): 89.5% ± 1.2%; lipoxygenase inhibition activity ([14]; conclusions, compared to standard quercetin): high lipoxigenase inhibition activity
